Source: publication PMC6963673, “Phenylboronic Acids Probing Molecular Recognition against Class A and Class C β-lactamases” (Antibiotics, 2019)
Like-named read-outs stand apart in the source and are kept apart here.

Tests used:
[1] = system: Pseudomonas aeruginosa overexpressing AmpC; experiment: Checkerboard microdilution assay and FICI, ceftazidime plus inhibitor; assay type: cell-based; details: for MIC Antibiotic: antibiotic alone; for FICI Antibiotic + inhibitor: CAZ + inhibitor, synergy FICI ≤0.5, indifference >0.5 and ≤4, antagonism >4; for nature of interaction with antibiotic: Pseudomonas aeruginosa, in combination with CAZ
Experimental: To investigate the ability of our phenylboronic acid derivatives 2-5 to reach the periplasmic space, where SBLs are secreted and concentrated in Gram negative bacteria, and synergically protect β-lactam antibiotics hydrolysis by BLs, drug interactions model via the fractional inhibitory concentration index (FICI) was determined against clinical strains overexpressing BLs targets of our studies (Table 2).
(§1) To assess the nature of the in vitro interactions between the compounds and antibiotics against selected clinical strains, the data obtained from the checkerboard assay were used to calculate the fractional inhibitory concentration index (FICI). Briefly, exponential cultures of the bacterial strains in Mueller Hinton broth were inoculated in the wells of microtiter plates containing different concentrations of the cited antibiotics, with and without phenylboronic acids, and incubated at 37 °C for 18 hours. The growth in each well was quantified spectrophotometrically at 595 nm by a microplate reader TECAN Infinite (Tecan Trading AG, Switzerland). The minimal inhibitory concentration (MIC) for each drug and combination of drugs was defined as the concentration of drug that reduced growth by 80% compared to that of organisms grown in the absence of drug. The fractional inhibitory concentration index (FICI) is the mathematical expression of the effect of the combination of antibacterial agents expressed in Equation (1):(1) ΣFIC=FICA+FICB=MICAB/MICA+MICBA/MICB in which MICA and MICB are the MICs of drugs A and B acting alone, and MICAB and MICBA are the MICs of drugs A and B in combination. Synergy is defined when the FICI is ≤0.5, antagonism when the FICI is > 4, and indifference when the FICI is >0.5 and ≤4.

KPC-2 = biological target: T1, KPC-2 (Klebsiella pneumoniae, UniProt Q9F663); experiment: In vitro enzyme inhibition assay against KPC-2 (nitrocefin reporter substrate); assay type: biochemical; details: for drop in potency against KPC-2: meta substituent
T1 construct: made in house
Excerpt: (§2) Expression and purification of recombinant KPC-2 and GES-5 have been performed as already reported. For recombinant AmpC from Pseudomonas aeruginosa, the optimized full-length synthetic gene was purchased (GeneArt service under Life Technologie) and subcloned into pRham vector to have it in the full-length version. Protein was expressed according to standard protocol: P. aeruginosa AmpC-β-lactamase was obtained from a culture of E. coli BL21(DE3), carrying the plasmid vector pRham-AmpC. 1L of LB-medium with kanamycin 50 μg/mL, at 37 °C, 150 RPM for 24 hrs. Expression was induced by 0.2% w/v Rhamnose. After 5–6 hours the cell broth was centrifuged at 4500 RPM, 4 °C, for 20 min. The sample was loaded on a column packed with 25 mL of Affigel-10 (Biorad) functionalized with 3 MAPB (3-methylaminophenylboronic acid). The column was previously equilibrated with the loading buffer. The protein was eluted (flow rate, 1 mL/min) with 5 column-volumes of elution-buffer (0.5 M boric acid, 0.5 M NaCl, pH 7.0). β-lactamase activity was checked in each elution fraction using 200 μM CENTA [35]. Active fractions were pooled, concentrated by ultrafiltration using a Millipore Ultra-15 (Ultracel-10K; Millipore) and checked by SDS-Page. The protein pool final concentration (1 mg/mL) was assessed using Bradford and UV-Vis assays. Purified AmpC β-lactamase was stored at −80 °C [36].
(§3) The half-maximal inhibitory concentration (IC50) of phenylboronic acid derivatives was determined as follows. Reactions were monitored using a Jasco V-730 spectrophotometer at […] wavelength. Boronic acids were dissolved in dimethyl sulfoxide (DMSO) to a concentration of 10 mM and stored at −20°C. Each compound was tested at concentrations ranging from 1 µM to 200 µM for inhibitory activity vs full-length KPC-2 enzyme, GES-5 and AmpC in 50 mM of PB + 50 mM KCl at pH 7.4 at 25°C with 0.01% v/v Triton X-100, to avoid compound aggregation and promiscuous inhibition in presence of nitrocefin as reported substrate. For tests against KPC-2, reporter substrate nitrocefin was used at 40 μM, (Km 36 μM) while for tests against GES-5 and AmpC reporter substrate nitrocefin was used at 200 μM (Km 208 μM and Km 200 respectively). All the experiments were performed in triplicate. Experimental error never exceeded 5%. The reaction was typically initiated by adding the enzyme to the reaction buffer last. The IC50 values were determined by measuring the rate of hydrolysis of a reporter substrate in the presence of five different inhibitor concentrations at λ 482 nm. The binding affinity ki was estimated, for each compound in the library, from the determined IC50 by Cheng–Prusoff equation as per competitive inhibition (Table 1).

[2] = system: clinical isolates of Klebsiella pneumoniae expressing KPC-2; experiment: Checkerboard microdilution assay and FICI, meropenem plus inhibitor; assay type: cell-based; details: for FICI Antibiotic + inhibitor: MEM + inhibitor, synergy FICI ≤0.5, indifference >0.5 and ≤4, antagonism >4; for nature of interaction with antibiotic: Klebsiella pneumoniae strains, in combination with MEM
Experimental: as §1

GES-5 = biological target: T2, GES-5 (Klebsiella pneumoniae, UniProt Q09HD0); experiment: In vitro enzyme inhibition assay against GES-5 (nitrocefin reporter substrate); assay type: biochemical
T2 construct: made in house
Excerpt: as §2, §3

AmpC [3] = biological target: T3, AmpC (Pseudomonas aeruginosa, UniProt P24735); experiment: In vitro enzyme inhibition assay against AmpC (nitrocefin reporter substrate); assay type: biochemical; details: for drop in potency against AmpC: ortho substitution
T3 construct: subcloned into pRham vector to have it in the full-length version; made in house; host or cells: E. coli BL21(DE3), plasmid pRham-AmpC
Excerpt: as §2, §3

AmpC [4] = biological target: T3, AmpC; details: read-out: AmpC Ki; lead phenylboronic acid; cited from earlier work

T3 sequence (P24735 27-397): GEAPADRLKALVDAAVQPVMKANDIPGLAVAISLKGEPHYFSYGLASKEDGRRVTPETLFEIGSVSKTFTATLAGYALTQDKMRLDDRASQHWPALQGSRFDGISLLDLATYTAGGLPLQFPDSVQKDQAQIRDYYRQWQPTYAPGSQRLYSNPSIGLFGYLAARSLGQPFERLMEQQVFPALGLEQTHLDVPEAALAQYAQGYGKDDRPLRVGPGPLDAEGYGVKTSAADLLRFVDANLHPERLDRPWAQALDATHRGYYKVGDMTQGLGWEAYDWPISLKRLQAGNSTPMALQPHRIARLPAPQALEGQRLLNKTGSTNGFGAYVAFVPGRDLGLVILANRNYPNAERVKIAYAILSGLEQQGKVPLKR
T1 sequence (Q9F663 25-293 limits assumed): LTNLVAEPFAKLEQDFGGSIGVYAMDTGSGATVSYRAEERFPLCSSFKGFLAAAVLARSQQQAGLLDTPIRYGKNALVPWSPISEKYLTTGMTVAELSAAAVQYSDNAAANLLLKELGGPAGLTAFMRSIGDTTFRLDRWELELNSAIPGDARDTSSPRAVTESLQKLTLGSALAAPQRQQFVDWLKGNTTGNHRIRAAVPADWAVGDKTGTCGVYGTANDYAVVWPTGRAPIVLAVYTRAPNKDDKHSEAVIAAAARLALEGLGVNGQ
T2 sequence (Q09HD0 19-287): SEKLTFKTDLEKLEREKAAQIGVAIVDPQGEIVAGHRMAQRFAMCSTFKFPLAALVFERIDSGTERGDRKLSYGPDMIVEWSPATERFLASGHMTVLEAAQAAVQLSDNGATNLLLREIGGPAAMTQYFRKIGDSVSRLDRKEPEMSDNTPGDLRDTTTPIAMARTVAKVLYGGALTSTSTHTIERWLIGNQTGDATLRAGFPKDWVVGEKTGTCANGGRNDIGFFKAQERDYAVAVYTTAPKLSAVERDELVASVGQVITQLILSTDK

| Structure (SMILES) | MIC Antibiotic ([1]; P aeruginosa 12) | MIC Antibiotic ([1]; P aeruginosa 148) | Ki (KPC-2) | FICI Antibiotic + inhibitor ([2]; Klebsiella 53A8) | FICI Antibiotic + inhibitor ([2]; Klebsiella 53A9) | FICI Antibiotic + inhibitor ([2]; Klebsiella 99D8) | nature of interaction with antibiotic [2] | Ki (GES-5) | higher activity against GES-5 with respect to KPC-2 (GES-5; ratio of Ki KPC-2 to Ki GES-5) | FICI Antibiotic + inhibitor ([1]; P aeruginosa 12) | FICI Antibiotic + inhibitor ([1]; P aeruginosa 148) | Ki (AmpC [3]) | drop in potency against AmpC (AmpC [3]) | drop in potency against KPC-2 (KPC-2) | nature of interaction with antibiotic [1] | Ki (AmpC [4]) |
| --- | --- | --- | --- | --- | --- | --- | --- | --- | --- | --- | --- | --- | --- | --- | --- | --- |
| CC(C)(O/N=C(\C(=O)N[C@@H]1C(=O)N2C(C(=O)[O-])=C(C[n+]3ccccc3)CS[C@H]12)c1csc(N)n1)C(=O)O [CAZ, ceftazidime, reference compound] | 32 µg/mL | 128 µg/mL | – | – | – | – | – | – | – | – | – | – | – | – | – | – |
| O=C(O)C=Cc1ccccc1B(O)O [Compound 2, [2-(2-carboxyvinyl)-phenyl]boronic acid] | – | – | 2.43 µM | 0.0117 | 0.0175 | 0.0156 | clear synergistic activity | 0.11 µM | 23 fold | 2 | 1 | 41.7 µM | up to 50 fold | – | – | – |
| O=C(O)C=Cc1cccc(B(O)O)c1 [Compound 3, [3-(2-carboxyvinyl)phenyl] boronic acid] | – | – | 31.2 µM | 2 | 1.5 | 2 | – | 24.6 µM | – | 0.5 | 0.375 | 1.45 µM | – | up to 47 fold | synergism can be defined | – |
| O=C(O)CCc1ccccc1B(O)O [Compound 4] | – | – | 1.13 µM | 0.1875 | 0.2500 | 0.1250 | clear synergistic activity | 1.83 µM | – | 2 | 1.5 | 76.1 µM | up to 50 fold | – | – | – |
| OB(O)c1ccccc1 [Compound 1, phenylboronic acid] | – | – | – | – | – | – | – | – | – | – | – | – | – | – | – | 4.85 µM |
| O=C(O)CCc1cccc(B(O)O)c1 [Compound 5] | – | – | 53 µM | 2 | 1.5 | 2 | – | 69.4 µM | – | 0.3750 | 0.0936 | 5.3 µM | – | up to 47 fold | synergism can be defined | – |
